Experimental data as given in patent US3943129A, “7-Amino-3-(1,3,4-thiadiazolinylthio-methyl) cephalosporins” (SmithKline Corporation, priority 1974, dated 1976).
Values after ≈ are worked out from the molar mass of the structure shown.

Columns and labels:
[1] = system: Serrantia marcescens ATCC 13880; assay: Minimum inhibitory concentration (MIC)
Kleb. pneumo. SK 4200 [2] = assay: In vivo ED50 in infected mice, subcutaneous; conditions: Mus musculus, sc
E. coli SK 12140 [3] = assay: Minimum inhibitory concentration (MIC); conditions: Escherichia coli, SK12140
E. coli HH 33779 = assay: Minimum inhibitory concentration (MIC); conditions: Escherichia coli, HH33779
S. aureus SK 23390 = assay: Minimum inhibitory concentration (MIC); conditions: Staphylococcus aureus, SK23390
Staph. aurcus villaluz = assay: Minimum inhibitory concentration (MIC)
S. aureus HH 127 = assay: Minimum inhibitory concentration (MIC); conditions: Staphylococcus aureus, HH127
Pseudomonas sp. HH 63 = assay: Minimum inhibitory concentration (MIC); conditions: SP.HH63
Kleb. pneumo. SK 4200 [4] = assay: Minimum inhibitory concentration (MIC)
Strep. faecalis HH 34358 = assay: Minimum inhibitory concentration (MIC); conditions: Enterococcus faecalis, HH34358
Strep. pyog. C203 = assay: Minimum inhibitory concentration (MIC)
[5] = system: Sal. paratyphi ATCC 12176; assay: Minimum inhibitory concentration (MIC); type: cell-based; conditions: Salmonella enterica
[6] = system: Entero. cloaca Pa.S.L.969; assay: Minimum inhibitory concentration (MIC)
[7] = system: Entero. aerogenes ATCC13048; assay: Minimum inhibitory concentration (MIC); conditions: Klebsiella aerogenes
Kleb. pneumo. SK 1200 = assay: Minimum inhibitory concentration (MIC)
E. coli SK 12140 [8] = assay: In vivo ED50 in infected mice, subcutaneous; conditions: Escherichia coli, SK12140, in Mus musculus, sc
Kleb. pneumonia = assay: In vivo ED50 in infected mice, oral; conditions: Mus musculus
E. coli = assay: In vivo ED50 in infected mice, oral; conditions: Escherichia coli, in Mus musculus

SMILES | MIC [1] | ED50 (Kleb. pneumo. SK 4200 [2]) | MIC (E. coli SK 12140 [3]) | MIC (E. coli HH 33779) | MIC (S. aureus SK 23390) | MIC (Staph. aurcus villaluz) | MIC (S. aureus HH 127) | MIC (Pseudomonas sp. HH 63) | MIC (Kleb. pneumo. SK 4200 [4]) | MIC (Strep. faecalis HH 34358) | MIC (Strep. pyog. C203) | MIC [5] | MIC [6] | MIC [7] | MIC (Kleb. pneumo. SK 1200) | ED50 (E. coli SK 12140 [8]) | ED50 (Kleb. pneumonia) | ED50 (E. coli)
O=C(O)C1=C(CSc2n[nH]c(=O)[nH]2)CSC2C(NC(=O)C(O)c3ccccc3)C(=O)N12 (stereo not shown) [V] | > 200 µg/mL | 8.7 mg/kg | 3.1 µg/mL (≈ 6.69 µM) | 6.3 µg/mL (≈ 13.6 µM) | 0.4 µg/mL (≈ 0.863 µM) | 25 µg/mL (≈ 53.9 µM) | 0.8 µg/mL (≈ 1.73 µM) | > 200 µg/mL | 3.1 µg/mL (≈ 6.69 µM) | 50 µg/mL (≈ 108 µM) | 0.1 µg/mL (≈ 0.216 µM) | 1.6 µg/mL (≈ 3.45 µM) | 12.5 µg/mL (≈ 27 µM) | 12.5 µg/mL (≈ 27 µM) | 1.6 µg/mL (≈ 3.45 µM) | 4 mg/kg | – | –
NC(C(=O)NC1C(=O)N2C(C(=O)O)=C(CSc3n[nH]c(=O)[nH]3)CSC12)c1ccc(O)cc1 (stereo not shown) [Compound IV] | > 200 µg/mL | 2.8 mg/kg | 6.3 µg/mL (≈ 13.2 µM) | 25 µg/mL (≈ 52.2 µM) | 6.3 µg/mL (≈ 13.2 µM) | 25 µg/mL (≈ 52.2 µM) | 6.3 µg/mL (≈ 13.2 µM) | > 200 µg/mL | 6.3 µg/mL (≈ 13.2 µM) | 100 µg/mL (≈ 209 µM) | 0.1 µg/mL (≈ 0.209 µM) | 6.3 µg/mL (≈ 13.2 µM) | – | 12.5 µg/mL (≈ 26.1 µM) | 12.5 µg/mL (≈ 26.1 µM) | 4 mg/kg | 6.2 mg/kg | 9.5 mg/kg
Cn1c(SCC2=C(C(=O)O)N3C(=O)C(NC(=O)C(N)c4ccccc4)C3SC2)n[nH]c1=O (stereo not shown) [II] | > 200 µg/mL | 11.5 mg/kg | 12.5 µg/mL (≈ 26.2 µM) | 25 µg/mL (≈ 52.5 µM) | 3.1 µg/mL (≈ 6.51 µM) | 25 µg/mL (≈ 52.5 µM) | 6.3 µg/mL (≈ 13.2 µM) | > 200 µg/mL | 6.3 µg/mL (≈ 13.2 µM) | 50 µg/mL (≈ 105 µM) | 0.1 µg/mL (≈ 0.21 µM) | 3.1 µg/mL (≈ 6.51 µM) | 50 µg/mL (≈ 105 µM) | 25 µg/mL (≈ 52.5 µM) | 6.3 µg/mL (≈ 13.2 µM) | 12.5 mg/kg | – | –
O=C(O)C1=C(CSc2n[nH]c(=S)s2)CSC2C(NC(=O)C(O)c3ccccc3)C(=O)N12 (stereo not shown) [VII] | 200 µg/mL (≈ 403 µM) | 64 mg/kg | 1.6 µg/mL (≈ 3.22 µM) | 3.1 µg/mL (≈ 6.24 µM) | 0.4 µg/mL (≈ 0.805 µM) | 12.5 µg/mL (≈ 25.2 µM) | 0.8 µg/mL (≈ 1.61 µM) | > 200 µg/mL | 1.6 µg/mL (≈ 3.22 µM) | 25 µg/mL (≈ 50.3 µM) | 0.2 µg/mL (≈ 0.403 µM) | 0.8 µg/mL (≈ 1.61 µM) | – | 12.5 µg/mL (≈ 25.2 µM) | 0.8 µg/mL (≈ 1.61 µM) | 21.5 mg/kg | – | –
